Publication PMC7582770, “Synthesis of “All-Cis” Trihydroxypiperidines from a Carbohydrate-Derived Ketone: Hints for the Design of New β-Gal and GCase Inhibitors” (Molecules, 2020)

What was measured:
[1] = target: T1, human lysosomal β-glucosidase (GCase) (Homo sapiens, UniProt P04062); assay: GCase inhibition in human leukocyte homogenates; format: biochemical; conditions: human leukocytes extracts; for inhibition at 1000 µM / GCase Inhibition (%): compounds 1 mM; for IC50: 4-methylumbelliferyl-β-D-glucoside 3.33 mM
T1 construct: in leukocytes isolated from healthy donors (controls); endogenous in cells; host or cells: human leukocytes from healthy donors, disrupted by sonication (crude homogenate)
T1 sequence (P04062 40-536): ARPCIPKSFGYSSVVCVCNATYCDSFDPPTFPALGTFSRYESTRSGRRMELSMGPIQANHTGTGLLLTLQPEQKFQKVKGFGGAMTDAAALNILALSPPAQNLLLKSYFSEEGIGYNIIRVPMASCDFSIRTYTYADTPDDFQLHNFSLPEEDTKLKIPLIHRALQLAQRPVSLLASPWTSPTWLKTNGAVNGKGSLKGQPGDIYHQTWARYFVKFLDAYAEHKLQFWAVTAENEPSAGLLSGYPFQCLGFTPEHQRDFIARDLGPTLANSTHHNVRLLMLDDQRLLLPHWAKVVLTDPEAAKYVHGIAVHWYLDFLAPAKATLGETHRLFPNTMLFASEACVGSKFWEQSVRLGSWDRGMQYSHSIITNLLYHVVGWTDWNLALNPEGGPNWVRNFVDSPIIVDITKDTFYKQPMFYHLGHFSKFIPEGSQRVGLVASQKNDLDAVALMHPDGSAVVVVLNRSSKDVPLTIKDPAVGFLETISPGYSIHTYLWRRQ
Method: The new compounds were screened at 1 mM concentration towards β-galactosidase (β-Gal) and β-glucosidase (GCase) in leukocytes isolated from healthy donors (controls). Isolated leukocytes were disrupted by sonication, and a Micro BCA Protein Assay Kit (Sigma–Aldrich, St. Louis, MO, USA) was used to determine the total protein amount for the enzymatic assay, according to the manufacturer’s instructions.
GCase activity was measured in a flat-bottomed 96-well plate. Compound solution (3 µL), 4.29 µg/µL leukocytes homogenate (7 µL), and substrate 4-methylumbelliferyl-β-D-glucoside (3.33 mM, 20 µL, Sigma–Aldrich Chemie Gmbh, Munich, Germany)) in citrate/phosphate buffer (0.1:0.2, M/M, pH 5.8) containing sodium taurocholate (0.3%) and Triton X-100 (0.15%) at 37 °C were incubated for 1 h. The reaction was stopped by addition of sodium carbonate (200 µL; 0.5 M, pH 10.7) containing Triton X-100 (0.0025%), and the fluorescence of 4-methylumbelliferone released by β-glucosidase activity was measured in SpectraMax M2 Microplate Reader (λex = 365 nm and λem = 435 nm; Molecular Devices LLC, San Jose, CA, US). Percentage GCase inhibition is given with respect to the control (without compound). Data are mean SD (n = 3). For compounds showing GCase inhibitory activity higher than 80% at 1 mM concentration, the IC50 values were determined by measuring the initial hydrolysis rate with 4-methylumbelliferyl-β-D-glucoside (3.33 mM). Data obtained were fitted by using the appropriate equation (for more details, see the Supplementary Materials).
IC50 for compounds 9, 10, 12 and 21 towards human lysosomal β-glucosidase The IC50 values of inhibitors against β-glucosidase were determined by measuring the initial hydrolysis rate with 4-methylumbelliferyl-β-D-glucoside (3.33 mM). Data obtained were fitted to the following equation using the Origin Microcal program. where Vi/Vo, represent the ratio between the activity measured in the presence of the inhibitor (Vi) and the activity of the control without the inhibitor (V0), “x” the inhibitor concentration, Max and Min, the maximal and minimal enzymatic activity observed, respectively.
Figure S48: IC of compound 9 towards GCase
Figure S49: IC50 of compound 10 towards GCase
(also on this page, place not known: Min x MinMax Vo Vi slope + […] […] […] […] […] […]+ −= 1 be tween (V i) (V 0), IC50) […]

[2] = test system: β-N-acetylglucosaminidase EC 3.2.1.52; assay: Commercial glycosidase screening; format: biochemical, bovine kidney; conditions: 0.1 mM inhibitor
Source text: A panel of 12 commercial glycosidases (α-L-fucosidase EC 3.2.1.51 from Homo sapiens, α-galactosidase EC 3.2.1.22 from coffee beans, β-galactosidases EC 3.2.1.23 from Escherichia coli and Aspergillus oryzae, α-glucosidases EC 3.2.1.20 from yeast and rice, amyloglucosidase EC 3.2.1.3 from Aspergillus niger, β-glucosidase EC 3.2.1.21 from almonds, α-mannosidase EC 3.2.1.24 from Jack beans, β-mannosidase EC 3.2.1.25 from snail, β-N-acetylglucosaminidases EC 3.2.1.52 from Jack beans and bovine kidney) purchased from Sigma-Aldrich (St. Louis, MO, USA) or Megazyme Ltd. (Bray, Co. Wicklow, Ireland) was screened.
The percentage (%) of inhibition towards the corresponding glycosidase was determined in quadruplicate in the presence of 100 μM of the inhibitor on the well. Each enzymatic assay (final volume 0.12 mL) contains 0.01–0.5 units/mL of the enzyme (with previous calibration) and 4.2 mM aqueous solution of the appropriate p-nitrophenyl glycopyranoside (substrate) buffered to the optimal pH of the enzyme. Enzyme and inhibitor were preincubated for 5 min at room temperature, and the reaction started by addition of the substrate. After 20 min of incubation at 37 °C, the reaction was stopped by the addition of 0.1 mL of sodium borate solution (pH 9.8). The p-nitrophenolate formed was measured by visible absorption spectroscopy at 405 nm (Asys Expert 96 spectrophotometer, Biochrom Ltd., Cambridge, England). Under these conditions, the p-nitrophenolate released led to optical densities linear with both reaction time and concentration of the enzyme (for more details, see the Supplementary Materials). The IC50 value (concentration of inhibitor required for 50% inhibition of enzyme activity) was determined from plots of % inhibition vs. different inhibitor concentrations. Each point of the graph is the average of four measures. The standard deviation for each point has been also represented in the graph.

Row | GCase Inhibition (%) ([1]; listed as C00009) | Compound | inhibition at 1000 µM [1] | IC50 [1] | GCase Inhibition (%) ([1]; listed as C00010) | % Inhibition at 0.1 mM, β-N-acetylglucosaminidase bovine kidney [2] | GCase Inhibition (%) ([1]; listed as C00012) | GCase Inhibition (%) ([1]; listed as C00016)
1 | 98% | CCCCCCCCCO[C@H]1CNC[C@@H](O)[C@H]1O [compound 9, (3S, 4R, 5R)-4,5-Dihydroxy-3-(Nonyloxy) Piperidine] | > 90% | 12 ± 6 µM |  |  |  | 
2 |  | CCCCCCCCCCCCN[C@H]1CNC[C@@H](O)[C@H]1O [compound 10, (3R, 4S, 5S)-3,4-Dihydroxy-5-(Dodecylamino) Piperidine] | > 90% | 6.4 ± 0.7 µM | 100% | - (no inhibition detected) |  | 
3 |  | CCCCCCCC[C@]1(O)CNC[C@@H](O)[C@H]1O [compound 12, (3S, 4R, 5R)-3,4,5-Trihydroxy-3-Octyl-Piperidine] | > 90% | 60 ± 23 µM |  | - (no inhibition detected) | 93% | 
4 |  | CCCCCCCCCO[C@@H]1CNC[C@@H](O)[C@H]1O [compound 21, (3R, 4R, 5R)-4,5-Dihydroxy-3-(Nonyloxy) Piperidine] | > 90% | 130 ± 13 µM |  | - (no inhibition detected) |  | 100%
